Results reported in patent publication US20220042033A1, “COMPOSITION AND METHOD FOR CONFERRING AND/OR ENHANCING TOLERANCE AGAINST HERBICIDES BY USING VARIANTS OF PPO” (FarmHannong Co., Ltd., priority 2017, published 2022).

How the values were obtained:
[1] = target: Auxenochlorella protothecoides ApPPO1 (SEQ ID NO: 1) variant L389T, fused to MBP (Auxenochlorella protothecoides, UniProt A0A087SQM0, L389T); experiment: PPO enzyme inhibition assay (IC50), MBP-fused PPO; format: biochemical
[2] = target: T1, Myxococcus xanthus MxPPO (SEQ ID NO: 3) variant A170L, fused to MBP (Myxococcus xanthus, UniProt P56601, A170L); experiment: biochemical
T1 construct: made in house; host or cells: BL21 CodonPlus(DE3) E. coli
Method: (§2) Thus, PPO proteins of wild type and variants were expressed as fused to MBP and were used for experiments.
(§3) In order to express wild type and variant proteins of ApPPO1 and MxPPO, those genes were introduced into pMAL-c2x vector (refer to FIG. 25), respectively.
(§4) The following process for purification of PPO protein was performed in a 4° C. cold room. […] The column was washed with 3 column volumes of buffer and the presence of protein in the washing solution was examined. When the protein was no longer detected, the washing procedure was terminated. Then, the MBP-PPO protein was eluted with approximately 2 column volumes of buffer containing 20 mM maltose. The protein concentration of each eluent was determined and the elution was stopped when the protein was no longer detected. Ten microliter of each fraction was investigated for protein quantification and SDS-PAGE analysis. […]
(§5) Hundred and eighty microliters of a reaction mixture containing the purified PPO protein were placed in 96 well plates and 20 μl of purified PPO proteins were added. […] The reaction proceeded at room temperature for 30 min and the fluorescence of protoporphyrin IX was measured using Microplate reader (Sense, Hidex) (excitation: 405 nm; emission: 633 nm). […] To this, 2.7 N HCl was added, and the absorbance at 408 nm was measured. […]

[3] = target: T2, Myxococcus xanthus MxPPO (protoporphyrinogen IX oxidase), wild type, SEQ ID NO: 3, fused to MBP (Myxococcus xanthus, UniProt P56601); experiment: PPO enzyme inhibition assay (IC50), MBP-fused PPO (Table 15); format: biochemical; conditions: protoporphyrinogen IX 50 μM, room temperature, 30 min
T2 construct: For encoding the PPO protein (MxPPO); made in house; host or cells: BL21 CodonPlus(DE3) E. coli

[4] = target: T3, Myxococcus xanthus MxPPO (SEQ ID NO: 3) variant R95A, fused to MBP (Myxococcus xanthus, UniProt P56601, R95A); experiment: biochemical
T3 construct: For encoding the PPO protein (MxPPO); made in house; host or cells: BL21 CodonPlus(DE3) E. coli

[5] = tested on: E. coli BT3(ΔPPO) transformed with Myxococcus xanthus MxPPO (SEQ ID NO: 3) variant A170L; experiment: Herbicide tolerance test in PPO-deficient E. coli BT3(ΔPPO), growth on plates; format: cell-based; conditions: Table 9, light, tiafenacil to 2000 μM, saflufenacil to 200 μM, flumioxazin to 100 μM
Method: (§6) The mutated CyPPO gene obtained from the Example 2 was transformed to BT3 (ΔPPO) strain which is deficient of PPO activity and cultured in LB media with PPO-inhibiting herbicide, thereby examining whether growth of transformed BT3 was not inhibited.
(§7) BT3 competent cells were transformed with the pET303-ApPPO1 and pET303-MxPPO plasmids and those with a mutation(s) constructed in Example 2 respectively, and were cultured in LB agar media containing carbenicillin (Gold Biotechnology, Co., Ltd.).
(§8) Single colony of E. coli transformed with each CyPPO gene was cultured in 3 ml of LB broth containing carbenicillin overnight, and then was subcultured until absorbance (OD600) reached 0.5 to 1. Then, it was diluted with LB broth to OD600=0.5. Again, the diluted solution was serially diluted 4 times by a factor of one tenth.
(§9) The LB agar media (LB 25 g/l, Bacto agar 15 g/l) containing carbenicillin (100 μg/ml) and 0 to 4,000 μM of various herbicides dissolved in DMSO was prepared. Next, 10 μl of each diluted solution was dropped on the plate and cultured at 37° C. under light (Tables 7, 9 and 10, FIGS. 2 to 6, 13 to 20) or dark (Tables 8 and 11, FIGS. 7 to 12, 21 to 24) for 16 to 20 hours. Then, the extent of tolerance was evaluated.
(§10) The extent of herbicide tolerance of the ApPPO1 or MxPPO mutated genes was evaluated by comparing that of mutated genes with that of ApPPO1 or MxPPO wild type. […]

[6] = target: Auxenochlorella protothecoides ApPPO1 (protoporphyrinogen IX oxidase), wild type, SEQ ID NO: 1, fused to MBP (Auxenochlorella protothecoides, UniProt A0A087SQM0); experiment: PPO enzyme inhibition assay (IC50), MBP-fused PPO; format: biochemical; conditions: ApPPO1 WT; 50 μM protoporphyrinogen IX, pH 8.0, room temperature, 30 min
[7] = tested on: E. coli BT3(ΔPPO) transformed with Auxenochlorella protothecoides ApPPO1 (SEQ ID NO: 1) variant Y422M (YM); experiment: Herbicide tolerance test in PPO-deficient E. coli BT3(ΔPPO), growth on plates; format: cell-based; conditions: Table 7, light, 37° C., 16 to 20 hours, vs wild type at highest herbicide concentration
Method: as §6, §7, §8, §9
(§11) The extent of herbicide tolerance of the ApPPO1 or MxPPO mutated genes was evaluated by comparing that of mutated genes with that of ApPPO1 or MxPPO wild type. The relative tolerance was represented with “+” as a factor of 10 times.
(§12) In Tables 7 to 11, tolerance level was presented as ‘−’ of tolerance of wild type and of variants equivalent to that of wild type, and was done as ‘+’ per each 10 fold resistance until ‘+++++’ as maximal resistance. […] A dilution series (OD600=0.5, 0.05, 0.005, 0.0005, 0.00005) was made and spotted on LB agar plates supplemented with herbicides.

[8] = target: T4, Myxococcus xanthus MxPPO (SEQ ID NO: 3) variant L332T, fused to MBP (Myxococcus xanthus, UniProt P56601, L332T); experiment: PPO enzyme inhibition assay (IC50), MBP-fused PPO (Table 15); format: biochemical
T4 construct: made in house; host or cells: BL21 CodonPlus(DE3) E. coli
Method: as §2, §3, §4, §5

[9] = tested on: E. coli BT3(ΔPPO) transformed with Myxococcus xanthus MxPPO (SEQ ID NO: 3) variant M365L; experiment: Herbicide tolerance test in PPO-deficient E. coli BT3(ΔPPO), growth on plates; format: cell-based; conditions: Table 9, light, tiafenacil to 2000 μM, saflufenacil to 200 μM, flumioxazin to 100 μM
Method: as §6, §7, §8, §9, §10

[10] = tested on: E. coli BT3(ΔPPO) transformed with Auxenochlorella protothecoides ApPPO1 (SEQ ID NO: 1) variant Y422L (YL); experiment: as above; format: cell-based; conditions: Table 7, light, 37° C., 16 to 20 hours, vs wild type at highest herbicide concentration
Method: as §6, §7, §8, §9, §11, §12

[11] = tested on: E. coli BT3(ΔPPO) transformed with Myxococcus xanthus MxPPO (SEQ ID NO: 3) variant A170C; experiment: as above; format: cell-based; conditions: Table 9, light, tiafenacil to 2000 μM, saflufenacil to 200 μM, flumioxazin to 100 μM
Method: as §6, §7, §8, §9, §10

[12] = target: Auxenochlorella protothecoides ApPPO1 (SEQ ID NO: 1) variant V213C, fused to MBP (Auxenochlorella protothecoides, UniProt A0A087SQM0, V213C); experiment: biochemical
Method: as §2, §4
(§13) Hundred and eighty microliters of a reaction mixture containing the purified PPO protein were placed in 96 well plates and 20 μl of purified PPO proteins were added. […] The reaction proceeded at room temperature for 30 min and the fluorescence of protoporphyrin IX was measured using Microplate reader (Sense, Hidex) (excitation: 405 nm; emission: 633 nm). […] To this, 2.7 N HCl was added, and the absorbance at 408 nm was measured. A standard curve was generated using standard protoporphyrin IX, and PPO activity was measured by calibration of protoporphyrin IX using the standard curve of protoporphyrin IX.

[13] = target: Auxenochlorella protothecoides ApPPO1 (SEQ ID NO: 1) variant V360M, fused to MBP (Auxenochlorella protothecoides, UniProt A0A087SQM0, V360M); experiment: PPO enzyme inhibition assay (IC50), MBP-fused PPO; format: biochemical
[14] = target: Auxenochlorella protothecoides ApPPO1 (SEQ ID NO: 1) variant F209A, fused to MBP (Auxenochlorella protothecoides, UniProt A0A087SQM0, F209A); experiment: PPO enzyme inhibition assay (IC50), MBP-fused PPO; format: biochemical
Method: as §2, §4, §13

[15] = tested on: wild type A. thaliana (Col-0 ecotype); experiment: Herbicide spray test on 4-week-old plants, wild type; format: in vivo, Arabidopsis thaliana; conditions: 100 ml of 1 μM tiafenacil and 0.05% Silwet L-77 per 0.24 m^2; within 7 days
Method: In order to examine PPO-inhibiting herbicide tolerance of the transgenic plants, 4-week-old plants were evenly sprayed with herbicide (100 ml of 1 μM tiafenacil and 0.05% Silwet L-77 (v/v)) in 40×60 cm area (0.24 m^2).

[16] = tested on: E. coli BT3(ΔPPO) transformed with Auxenochlorella protothecoides ApPPO1 (SEQ ID NO: 1) variant V360M (VM); experiment: Herbicide tolerance test in PPO-deficient E. coli BT3(ΔPPO), growth on plates; format: cell-based; conditions: Table 7, light, 37° C., 16 to 20 hours, vs wild type at highest herbicide concentration
Method: as §6, §7, §8, §9, §11, §12

[17] = tested on: E. coli BT3(ΔPPO) transformed with Auxenochlorella protothecoides ApPPO1 (SEQ ID NO: 1) variant A215C (AC); experiment: as above; format: cell-based; conditions: Table 7, light, 37° C., 16 to 20 hours, vs wild type at highest herbicide concentration
Method: as §6, §7, §8, §9, §11, §12

[18] = target: T5, Myxococcus xanthus MxPPO (SEQ ID NO: 3) variant I311M, fused to MBP (Myxococcus xanthus, UniProt P56601, I311M); experiment: biochemical
T5 construct: made in house; host or cells: BL21 CodonPlus(DE3) E. coli
Method: as §2, §3, §4, §5

[19] = tested on: E. coli BT3(ΔPPO) transformed with Auxenochlorella protothecoides ApPPO1 wild type, SEQ ID NO: 1; experiment: Herbicide tolerance test in PPO-deficient E. coli BT3(ΔPPO), growth on plates; format: cell-based; conditions: ApPPO1 WT, 37° C., 16 to 20 hours
Method: (§1) Then, the extent of tolerance was evaluated.

[20] = tested on: E. coli BT3(ΔPPO) transformed with Myxococcus xanthus MxPPO wild type, SEQ ID NO: 3; experiment: as above; format: cell-based; conditions: MxPPO WT, light
Method: as §1

[21] = target: T6, Myxococcus xanthus MxPPO (SEQ ID NO: 3) variant V164A, fused to MBP (Myxococcus xanthus, UniProt P56601, V164A); experiment: PPO enzyme inhibition assay (IC50), MBP-fused PPO (Table 15); format: biochemical
T6 construct: For encoding the PPO protein (MxPPO); made in house; host or cells: BL21 CodonPlus(DE3) E. coli

[22] = tested on: E. coli BT3(ΔPPO) transformed with Auxenochlorella protothecoides ApPPO1 (SEQ ID NO: 1) variant Y422C (YC); experiment: Herbicide tolerance test in PPO-deficient E. coli BT3(ΔPPO), growth on plates; format: cell-based; conditions: Table 7, light, 37° C., 16 to 20 hours, vs wild type at highest herbicide concentration
Method: as §6, §7, §8, §9, §11, §12

[23] = target: T7, Myxococcus xanthus MxPPO (SEQ ID NO: 3) variant F329V, fused to MBP (Myxococcus xanthus, UniProt P56601, F329V); experiment: PPO enzyme inhibition assay (IC50), MBP-fused PPO (Table 15); format: biochemical
T7 construct: For encoding the PPO protein (MxPPO); made in house; host or cells: BL21 CodonPlus(DE3) E. coli
T7 sequence (P56601 whole entry F329V, the tested form may be a part): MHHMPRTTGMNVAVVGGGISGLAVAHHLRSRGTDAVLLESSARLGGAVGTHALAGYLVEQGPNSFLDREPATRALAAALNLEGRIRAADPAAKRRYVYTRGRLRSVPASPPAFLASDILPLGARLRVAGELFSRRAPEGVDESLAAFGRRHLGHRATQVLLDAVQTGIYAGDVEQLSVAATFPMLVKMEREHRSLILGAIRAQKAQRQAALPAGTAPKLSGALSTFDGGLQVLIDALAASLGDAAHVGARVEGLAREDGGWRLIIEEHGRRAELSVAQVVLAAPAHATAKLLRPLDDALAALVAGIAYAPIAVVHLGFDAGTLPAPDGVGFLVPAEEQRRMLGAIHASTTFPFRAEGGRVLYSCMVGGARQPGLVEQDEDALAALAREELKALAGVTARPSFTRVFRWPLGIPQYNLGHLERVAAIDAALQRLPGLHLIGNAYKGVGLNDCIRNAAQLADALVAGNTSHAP
Method: as §2, §3, §4, §5

Auxenochlorella protothecoides ApPPO1 (SEQ ID NO: 1) variant V360M, fused to MBP, sequence (A0A087SQM0 entry or part of it V360M): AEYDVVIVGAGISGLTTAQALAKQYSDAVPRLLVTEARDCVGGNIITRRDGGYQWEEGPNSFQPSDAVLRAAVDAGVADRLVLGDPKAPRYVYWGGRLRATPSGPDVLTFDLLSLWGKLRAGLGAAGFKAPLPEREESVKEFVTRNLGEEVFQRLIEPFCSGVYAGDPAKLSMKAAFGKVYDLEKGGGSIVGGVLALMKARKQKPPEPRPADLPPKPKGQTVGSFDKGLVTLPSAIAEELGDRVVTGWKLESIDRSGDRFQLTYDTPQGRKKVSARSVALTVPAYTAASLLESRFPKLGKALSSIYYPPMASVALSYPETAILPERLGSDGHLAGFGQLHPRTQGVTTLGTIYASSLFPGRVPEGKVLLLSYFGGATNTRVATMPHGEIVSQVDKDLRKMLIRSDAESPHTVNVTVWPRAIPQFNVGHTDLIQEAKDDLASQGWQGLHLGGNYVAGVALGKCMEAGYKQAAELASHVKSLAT
Auxenochlorella protothecoides ApPPO1 (SEQ ID NO: 1) variant V213C, fused to MBP, sequence (A0A087SQM0 entry or part of it V213C): as the sequence (A0A087SQM0 entry or part of it V360M) above, with V163C, M310V counted along it
T2 sequence (P56601 whole entry, the tested form may be a part): as the sequence (P56601 whole entry F329V, the tested form may be a part) above, with V329F counted along it
Auxenochlorella protothecoides ApPPO1 (SEQ ID NO: 1) variant L389T, fused to MBP, sequence (A0A087SQM0 entry or part of it L389T): as the sequence (A0A087SQM0 entry or part of it V360M) above, with M310V, L339T counted along it
T1 sequence (P56601 whole entry A170L, the tested form may be a part): as the sequence (P56601 whole entry F329V, the tested form may be a part) above, with A170L, V329F counted along it
T3 sequence (P56601 whole entry R95A, the tested form may be a part): as the sequence (P56601 whole entry F329V, the tested form may be a part) above, with R95A, V329F counted along it
T5 sequence (P56601 whole entry I311M, the tested form may be a part): as the sequence (P56601 whole entry F329V, the tested form may be a part) above, with I311M, V329F counted along it
T6 sequence (P56601 whole entry V164A, the tested form may be a part): as the sequence (P56601 whole entry F329V, the tested form may be a part) above, with V164A, V329F counted along it
T4 sequence (P56601 whole entry L332T, the tested form may be a part): as the sequence (P56601 whole entry F329V, the tested form may be a part) above, with V329F, L332T counted along it
Auxenochlorella protothecoides ApPPO1 (SEQ ID NO: 1) variant F209A, fused to MBP, sequence (A0A087SQM0 entry or part of it F209A): as the sequence (A0A087SQM0 entry or part of it V360M) above, with F159A, M310V counted along it
Auxenochlorella protothecoides ApPPO1 (protoporphyrinogen IX oxidase), wild type, SEQ ID NO: 1, fused to MBP, sequence (A0A087SQM0 51-532): as the sequence (A0A087SQM0 entry or part of it V360M) above, with M310V counted along it

Molecule `COC(=O)CCNC(=O)C(C)Sc1cc(-n2c(=O)cc(C(F)(F)F)n(C)c2=O)c(F)cc1Cl` (stereo not shown) [tiafenacil] has an IC50 [1] of 716 nM, an IC50 [2] greater than 5000 nM and an IC50 [3] of 0.242 µM. The IC50 [4] was 2370 nM, the “relative herbicide tolerance level” value [5] was “+ (1-9 fold higher tolerance)” and the IC50 [6] was 21 nM. For the same molecule, the “relative herbicide tolerance level” value [7] was “+++ (100-999 fold higher tolerance)”, the IC50 [8] was 1010 nM and the “relative herbicide tolerance level” value [9] was “+ (1-9 fold higher tolerance)”. For the same molecule, the “relative herbicide tolerance level” value [10] was “++ (10-99 fold higher tolerance)”, the “relative herbicide tolerance level” value [11] was “+ (1-9 fold higher tolerance)” and the IC50 [12] was 81 nM. The IC50 [13] was 75 nM, the IC50 [14] was 69 nM and the “plant damage after spraying” value [15] was “completely died within 7 days after treatment”. The “relative herbicide tolerance level” value [16] was “++ (10-99 fold higher tolerance)”, the “relative herbicide tolerance level” value [17] was “+ (1-9 fold higher tolerance)” and the IC50 [18] was 964 nM. The “relative herbicide tolerance level” value ([19]; Table 7, light, vs wild type at highest herbicide concentration) was “−”, the “relative herbicide tolerance level” value ([19]; Table 8, dark, tiafenacil to 200 μM, flumioxazin to 100 μM, sulfentrazone to 400 μM) was “−” and the “relative herbicide tolerance level” value ([20]; Table 9, tiafenacil to 2000 μM, saflufenacil to 200 μM, flumioxazin to 100 μM) was “−”. For the same molecule, the “relative herbicide tolerance level” value ([20]; Table 10, tiafenacil 2000 μM, flumioxazin to 400 μM, sulfentrazone to 1000 μM) was “−”, the IC50 [21] was 367 nM and the “relative herbicide tolerance level” value [22] was “++ (10-99 fold higher tolerance)”. The IC50 [23] was 239 nM.
